# Reference: ChEMBL document CHEMBL3137667, “[Drug-induced liver injury; fourteenth updated edition of the bibliographic database of liver injuries and related drugs]” (Gastroenterol Clin Biol, 2004)
# How the values were obtained:
# [1] = human
# [2] = Highest frequency of moderate liver toxicity observed during clinical trials, expressed as a percentage. [column '% BIOL' in source]; settings: human
# [3] = human; remark: listed apart in the source
# [4] = human; remark: listed apart in the source
# [5] = human, serum
# [6] = human; remark: listed apart in the source
# [7] = human, serum, 4383 h
# [8] = human; remark: listed apart in the source
# [9] = human; remark: listed apart in the source
# [10] = human; remark: listed apart in the source
# [11] = Highest frequency of acute liver toxicity observed during clinical trials, expressed as a percentage. [column '% AIGUE' in source]; settings: human
# [12] = human, serum; remark: listed apart in the source
# [13] = human; remark: listed apart in the source
# [14] = human; remark: listed apart in the source
# 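Wherever Hepatotoxicity (association with vascular disease) is given: count of indexed literature references reporting vascular liver injury in humans, e.g. peliosis hepatitis, hepatic veno-occlusive disease or Budd-Chiari syndrome.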
# 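Wherever Hepatotoxicity (benign tumour) is given: value is a count of indexed literature references citing a benign tumour confirmed by histopathology.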
# 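Wherever Hepatotoxicity (choleostasis) is given: human cholestatic liver injury, shown by histopathology or by peak ALT or AST elevation over alkaline phosphatase ratio below 2, value counts indexed literature reports.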
# 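Wherever Hepatotoxicity (chronic liver disease) is given: chronic liver injury confirmed by histopathology or persistently raised serum aminotransferase activity beyond 6 months, value given as the count of indexed literature references.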
# 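Wherever Hepatotoxicity (cirrhosis) is given: value is a count of indexed literature references reporting cirrhosis confirmed by histopathology.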
# 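Wherever Hepatotoxicity (cytolytic) is given: human cytolytic liver injury, shown by histopathology or by a ratio above 5 of peak ALT or AST elevation to alkaline phosphatase elevation, value counts indexed references.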
# 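Wherever Hepatotoxicity (granulomatous hepatitis) is given: value is a count of indexed literature references reporting granulomatous liver disease confirmed by histopathology.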
# 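Wherever Hepatotoxicity (malignant tumour) is given: malignant tumour confirmed by histopathology, value gives the count of indexed literature references reporting it.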
# 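Wherever Hepatotoxicity (severe hepatitis) is given: human clinical data: severe hepatitis, meaning potentially life-threatening liver failure or clinically observed cases, the value counts how many indexed literature references report it.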
# 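Wherever Hepatotoxicity (steatosis) is given: steatosis confirmed by histopathology, value is the count of indexed references.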
Compound,Hepatotoxicity (malignant tumour) [1],Hepatotoxicity (moderate) [2] [%],Hepatotoxicity (cytolytic) [3],Hepatotoxicity (cirrhosis) [4],Hepatotoxicity (moderate) [5],Hepatotoxicity (benign tumour) [6],Hepatotoxicity (chronic liver disease) [7],Hepatotoxicity (steatosis) [8],Hepatotoxicity (severe hepatitis) [9],Hepatotoxicity (choleostasis) [10],Hepatotoxicity (acute) [11] [%],Hepatotoxicity (acute) [12],Hepatotoxicity (association with vascular disease) [13],Hepatotoxicity (granulomatous hepatitis) [14],Hepatotoxicity (moderate) ([2]; Liver) [%],Hepatotoxicity (cytolytic) ([3]; Liver),Hepatotoxicity (severe hepatitis) ([9]; Liver),Hepatotoxicity (choleostasis) ([10]; Liver),Hepatotoxicity (acute) ([11]; Liver) [%],Hepatotoxicity (granulomatous hepatitis) ([14]; Liver)
Clc1cccc(C(c2ccc3[nH]cnc3c2)n2ccnc2)c1 (stereo not drawn) [LIAROZOLE],0,2.9,0,0,1,0,0,0,0,0,0,0,0,0,,,,,,
CO[C@@]1(NC(=O)CSC(F)F)C(=O)N2C(C(=O)O)=C(CSc3nnnn3CCO)CO[C@@H]21 [FLOMOXEF],0,33.3,0,0,55,0,0,0,0,0,0,,0,0,,,,,,
COc1cccc2c1C(=O)c1c(O)c3c(c(O)c1C2=O)C[C@@](O)(C(=O)CO)C[C@@H]3O[C@H]1C[C@H](N)[C@@H](O)[C@H](C)O1 [EPIRUBICIN],0,6.4,0,0,3,0,0,0,0,0,,0,0,0,,,,,,
CC(C)(C)NCC(O)c1ccc(O)c(CO)c1 (stereo not drawn) [ALBUTEROL],0,,,0,0,0,0,0,,,,,0,,0,0,0,0,4,0
CCn1cc(C(=O)O)c(=O)c2cc(F)c(N3CCN(C)CC3)cc21 [PEFLOXACIN],0,,0,0,5,0,0,0,,0,,0,,0,16.7,,0,,0,
CC(C)NCC(O)COc1cccc2[nH]ccc12 (stereo not drawn) [PINDOLOL],0,7,0,0,1,0,0,0,0,0,0,,0,0,,,,,,
CC1CS(=O)(=O)CCN1/N=C/c1ccc([N+](=O)[O-])o1 (stereo not drawn) [NIFURTIMOX],0,,,0,0,0,0,0,,,,,0,,0,0,0,0,,0
NC(=O)c1csc([C@@H]2O[C@H](CO)[C@@H](O)[C@H]2O)n1 [TIAZOFURIN],0,62.5,0,0,7,0,0,0,0,0,0,,0,0,,,,,,
CC(C)(C(=O)O)c1ccc(C(O)CCCN2CCC(C(O)(c3ccccc3)c3ccccc3)CC2)cc1 (stereo not drawn) [FEXOFENADINE],0,,,0,1,0,0,0,,,,,0,,1.8,0,0,0,,0
CC(=O)NC[C@H]1CN(c2ccc(N3CCOCC3)c(F)c2)C(=O)O1 [LINEZOLID],0,1,0,0,1,0,0,0,0,0,,,0,0,,,,,,
C[C@]12C=CC(=O)C=C1CC[C@@H]1[C@@H]2CC[C@@]2(C)[C@H]1CC[C@]2(C)O (stereo in doubt; form 2) [METHANDROSTENOLONE],1,,,,,0,,,,1,,1,,,,,,,,
CARBETIMER,0,,0,0,2,0,0,0,0,0,0,0,0,0,,,,,,
CCn1nc(C(=O)O)c(=O)c2cc3c(cc21)OCO3 [CINOXACIN],0,1,0,0,3,0,0,0,0,0,0,,0,0,,,,,,
